The values below come from PMC9243172 (Heliyon, 2022).

The target in one series is T1, CYP1A2 (Homo sapiens, UniProt P05177).
T1 sequence (P05177 1-516): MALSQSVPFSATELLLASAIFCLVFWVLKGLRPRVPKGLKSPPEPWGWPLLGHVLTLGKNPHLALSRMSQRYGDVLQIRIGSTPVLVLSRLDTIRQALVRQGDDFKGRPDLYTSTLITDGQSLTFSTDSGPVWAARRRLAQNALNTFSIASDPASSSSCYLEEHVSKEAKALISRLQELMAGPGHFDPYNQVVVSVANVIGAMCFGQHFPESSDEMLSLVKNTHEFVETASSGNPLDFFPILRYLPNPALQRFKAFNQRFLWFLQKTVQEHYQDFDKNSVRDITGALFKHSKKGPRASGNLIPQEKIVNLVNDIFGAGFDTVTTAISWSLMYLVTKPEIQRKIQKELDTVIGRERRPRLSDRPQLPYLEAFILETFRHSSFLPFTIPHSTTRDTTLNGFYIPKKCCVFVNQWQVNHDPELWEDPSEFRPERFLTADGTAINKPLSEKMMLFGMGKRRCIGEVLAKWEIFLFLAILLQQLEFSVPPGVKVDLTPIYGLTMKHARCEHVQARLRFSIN
Kind of series: Inhibition of CYP1A2. The series is classed as biochemical.

In a further series the target is CYP3A4 (Homo sapiens, UniProt P08684). Briefly: Inhibition of CYP3A4. The series is classed as biochemical.
Sequence of CYP3A4 (P08684 whole entry): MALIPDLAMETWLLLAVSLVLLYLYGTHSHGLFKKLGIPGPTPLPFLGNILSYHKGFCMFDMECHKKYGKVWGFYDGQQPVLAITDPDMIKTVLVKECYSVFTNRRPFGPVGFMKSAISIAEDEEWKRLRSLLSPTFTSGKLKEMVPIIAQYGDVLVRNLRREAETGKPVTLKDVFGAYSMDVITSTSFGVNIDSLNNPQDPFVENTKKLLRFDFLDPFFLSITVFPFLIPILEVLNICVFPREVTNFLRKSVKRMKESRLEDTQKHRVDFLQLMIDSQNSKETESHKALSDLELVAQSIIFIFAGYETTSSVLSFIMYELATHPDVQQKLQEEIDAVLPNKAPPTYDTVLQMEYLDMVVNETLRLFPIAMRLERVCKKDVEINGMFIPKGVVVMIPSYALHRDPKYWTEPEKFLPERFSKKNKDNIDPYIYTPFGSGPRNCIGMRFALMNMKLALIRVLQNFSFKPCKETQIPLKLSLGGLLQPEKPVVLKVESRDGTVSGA
Another series has as its target CYP2C9 (Homo sapiens, UniProt P11712). Kind of series: Inhibition of CYP2C9.
Another series addresses CYP2D6 (Homo sapiens, UniProt P10635). Briefly: Inhibition of CYP2D6. The series is classed as biochemical.
A further series concerns the target P-gp (Homo sapiens, UniProt P08183). Briefly: Rhodamine-123 permeability across Caco-2 cell monolayers. Particulars: Caco-2, pH 7.4. In general terms: Caco-2 monolayers are a common model of the intestinal barrier.
Series [1] in a line: Pharmacokinetic interaction of Triphala extract with midazolam in rats. Particulars: for k el: Kel; for half-life: T1/2, rats.
A short description of series [2]: Pharmacokinetic interaction of Triphala extract with phenacetin in rats. Particulars: for k el: Kel; for half-life: T1/2, rats.
The mark [3] stands for this setting: male, Wistar, rat, plasma, iv, 5 mg/kg, rats, midazolam 5 mg/kg iv, control (midazolam alone).
Where [4] appears, read: male, Wistar, rat, plasma, po, 20 mg/kg, rats, midazolam 20 mg/kg oral, control (midazolam alone).
[5] abbreviates: rats, midazolam 20 mg/kg oral, control (midazolam alone).
Where [6] appears, read: rats, oral co-administration of Triphala 500 mg/kg, vs control.
The mark [7] stands for this setting: male, Wistar, rat, plasma, iv, 5 mg/kg, rats, phenacetin 5 mg/kg iv, control (phenacetin alone).
Where [8] appears, read: male, Wistar, rat, plasma, po, 30 mg/kg, rats, phenacetin 30 mg/kg oral, control (phenacetin alone).
Where [9] appears, read: rats, phenacetin 30 mg/kg oral, control (phenacetin alone).

A word on the IC50: it is the concentration at which inhibition is half-maximal. Higher therefore signals weaker potency in that assay. Broadly, the Papp A→B is the apparent permeability from the apical to the basolateral side of a cell layer. A higher Papp A→B goes with ready permeation. By Papp B→A is commonly meant the apparent permeability from the basolateral to the apical side of a cell layer. Usually efflux ratio stands for the permeability from basolateral to apical divided by that in the opposite direction, in the common usage. For orientation: AUC means concentration integrated over time. Low values mean less exposure, high ones more exposure. What is called clearance is a measure of how efficiently the substance is removed, as volume per time. Usually Cmax stands for the highest concentration seen after dosing. For orientation: MRT means a mean duration of stay, worked out from the concentration-time curve. In general, half-life refers to how long it takes for the measured level to halve. Low values mean rapid decline, high ones slow decline. One may read the Tmax as the time from dosing to the highest level. As a reminder, the AUC(0-t) is exposure summed from dosing to a finite time, without extrapolation to infinity. Low values mean less exposure, high ones more exposure.

Sequence of P-gp (P08183 whole entry): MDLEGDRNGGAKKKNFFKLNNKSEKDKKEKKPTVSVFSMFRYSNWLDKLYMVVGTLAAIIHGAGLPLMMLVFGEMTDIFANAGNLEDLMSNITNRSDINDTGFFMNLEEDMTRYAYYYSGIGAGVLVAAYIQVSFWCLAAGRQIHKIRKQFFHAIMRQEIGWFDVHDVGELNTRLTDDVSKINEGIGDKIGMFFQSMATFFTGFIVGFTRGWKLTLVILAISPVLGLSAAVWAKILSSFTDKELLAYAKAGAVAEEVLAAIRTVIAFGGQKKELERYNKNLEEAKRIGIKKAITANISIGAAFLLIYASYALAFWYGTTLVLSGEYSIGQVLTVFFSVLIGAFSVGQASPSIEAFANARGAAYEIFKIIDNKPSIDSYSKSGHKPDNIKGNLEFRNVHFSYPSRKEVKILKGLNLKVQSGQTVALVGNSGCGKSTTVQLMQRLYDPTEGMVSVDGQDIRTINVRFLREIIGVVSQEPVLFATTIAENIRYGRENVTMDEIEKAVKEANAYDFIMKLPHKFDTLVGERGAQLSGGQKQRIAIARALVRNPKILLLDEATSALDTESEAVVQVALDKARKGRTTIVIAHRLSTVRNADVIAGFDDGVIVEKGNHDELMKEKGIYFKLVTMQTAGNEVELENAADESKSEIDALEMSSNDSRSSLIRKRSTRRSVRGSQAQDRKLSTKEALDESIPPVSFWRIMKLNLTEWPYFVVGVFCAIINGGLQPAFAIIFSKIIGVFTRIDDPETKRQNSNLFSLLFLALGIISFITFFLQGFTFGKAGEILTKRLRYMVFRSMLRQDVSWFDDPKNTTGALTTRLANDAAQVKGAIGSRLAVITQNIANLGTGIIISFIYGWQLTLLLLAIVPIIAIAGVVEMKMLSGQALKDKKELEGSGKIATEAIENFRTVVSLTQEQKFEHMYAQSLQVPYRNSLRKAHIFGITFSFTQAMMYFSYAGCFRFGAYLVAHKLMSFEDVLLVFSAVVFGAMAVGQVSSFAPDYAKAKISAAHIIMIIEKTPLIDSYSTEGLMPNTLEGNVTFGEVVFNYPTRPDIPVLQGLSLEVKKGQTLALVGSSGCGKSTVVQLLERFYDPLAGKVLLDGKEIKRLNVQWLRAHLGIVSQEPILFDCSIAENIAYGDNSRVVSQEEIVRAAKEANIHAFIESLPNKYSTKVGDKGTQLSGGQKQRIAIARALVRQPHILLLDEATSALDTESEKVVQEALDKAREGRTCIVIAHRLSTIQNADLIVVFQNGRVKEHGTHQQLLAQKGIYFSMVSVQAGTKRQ
Sequence of CYP2D6 (P10635 whole entry): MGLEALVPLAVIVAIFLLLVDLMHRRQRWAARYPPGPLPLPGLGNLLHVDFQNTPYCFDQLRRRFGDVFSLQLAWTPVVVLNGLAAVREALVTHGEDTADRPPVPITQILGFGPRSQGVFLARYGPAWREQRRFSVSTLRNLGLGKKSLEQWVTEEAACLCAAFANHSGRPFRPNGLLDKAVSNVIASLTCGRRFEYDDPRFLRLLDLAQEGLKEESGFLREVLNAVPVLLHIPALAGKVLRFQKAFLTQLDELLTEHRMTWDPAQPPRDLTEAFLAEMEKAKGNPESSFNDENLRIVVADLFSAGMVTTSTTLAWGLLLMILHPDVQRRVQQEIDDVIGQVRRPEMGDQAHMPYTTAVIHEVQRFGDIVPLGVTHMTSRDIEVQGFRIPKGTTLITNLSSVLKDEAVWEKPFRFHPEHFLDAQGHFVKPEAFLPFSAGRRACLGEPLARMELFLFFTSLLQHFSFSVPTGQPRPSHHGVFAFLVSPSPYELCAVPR
Sequence of CYP2C9 (P11712 whole entry): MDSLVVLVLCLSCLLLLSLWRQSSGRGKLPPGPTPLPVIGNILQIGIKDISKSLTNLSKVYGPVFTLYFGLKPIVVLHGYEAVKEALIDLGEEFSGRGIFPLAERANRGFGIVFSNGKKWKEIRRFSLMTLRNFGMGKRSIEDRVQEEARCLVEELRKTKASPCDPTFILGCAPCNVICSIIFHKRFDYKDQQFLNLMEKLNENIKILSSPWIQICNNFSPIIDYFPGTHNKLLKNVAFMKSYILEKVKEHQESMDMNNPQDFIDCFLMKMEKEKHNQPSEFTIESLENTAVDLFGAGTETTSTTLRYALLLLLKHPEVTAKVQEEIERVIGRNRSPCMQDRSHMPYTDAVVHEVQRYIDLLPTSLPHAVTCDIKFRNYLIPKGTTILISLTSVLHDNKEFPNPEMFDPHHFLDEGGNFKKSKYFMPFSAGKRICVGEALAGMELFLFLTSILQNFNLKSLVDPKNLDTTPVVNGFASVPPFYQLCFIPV

With `O=c1oc2c(O)c(O)cc3c(=O)oc4c(O)c(O)cc1c4c23` [Ellagic acid], the IC50 is 12.6 µM against CYP1A2, 23.2 µM on CYP3A4, 27.1 µM against CYP2C9 and 42.4 µM at CYP2D6.

Consider `O=C(O)c1cc(O)c(O)c(O)c1` [Gallic acid], for which the IC50 is 89.9 µM against CYP1A2, 338 µM against CYP2C9 and 265 µM against CYP2D6.

Turning to `COC(=O)c1ccccc1-c1c2ccc(=N)cc-2oc2cc(N)ccc12` [Rhodamine 123, rhodamine-123], on P-gp, the Papp A→B at 120 min, 2.5 μg/mL amounted to 64 ± 10 ×10⁻⁶ cm/s; the Papp B→A at 120 min, 2.5 μg/mL amounted to 190 ± 3 ×10⁻⁶ cm/s; the efflux ratio at 120 min, 2.5 μg/mL was 3.2 ± 0.5.

In series [1] (setting [3]), `Cc1ncc2n1-c1ccc(Cl)cc1C(c1ccccc1F)=NC2` [midazolam] had an AUC of 670 ± 270 ng·h/mL, a Cmax of 910 ± 130 ng/mL, a k el of 0.00015 s⁻¹ and an MRT of 64.8 ± 27.6 min. Besides, in series [1] (male, Wistar, rat, plasma, iv, 5 mg/kg, CLtot, rats, midazolam 5 mg/kg iv, control (midazolam alone)), the clearance is 83.5 mL/min. In addition, in series [1] (male, Wistar, rat, plasma, iv, 5 mg/kg, midazolam 5 mg/kg iv, control (midazolam alone)), the half-life is 58.8 ± 23.4 min. In series [1] (setting [4]), the AUC worked out at 1070 ± 70 ng·h/mL, the Cmax came out at 950 ± 130 ng/mL, the k el was 0.000194 s⁻¹ and the MRT is 88.8 ± 14.4 min. This compound also gave a half-life in series [1] (male, Wistar, rat, plasma, po, 20 mg/kg, midazolam 20 mg/kg oral, control (midazolam alone)) of 63.6 ± 11.4 min. For the same compound, the Tmax in series [1] (male, Wistar, rat, plasma, po, 20 mg/kg, Tmax, rats, midazolam 20 mg/kg oral, control (midazolam alone)) came out at 22.8 ± 2.4 min. In addition, the Vdss in series [1] (rats, midazolam 5 mg/kg iv, control (midazolam alone)) was found to be 7.44 ± 4.0 L/h. In series [1] (setting [5]), this compound returned a CLtot/F of 18.89 ± 1.08 L/h and a Vdss/F of 28.05 ± 4.9 L/h. Further, in series [1] (setting [6]), the “Increase of bioavailability of midazolam” value is given as around 40.7%.

As to `CCOc1ccc(NC(C)=O)cc1` [phenacetin], the AUC(0-t) in series [2] (male, Wistar, rat, plasma, iv, 5 mg/kg, AUC0-t, rats, phenacetin 5 mg/kg iv, control (phenacetin alone)) turned out to be 1770 ± 190 ng·h/mL. The clearance in series [2] (male, Wistar, rat, plasma, iv, 5 mg/kg, CLtot, rats, phenacetin 5 mg/kg iv, control (phenacetin alone)) is 48.3 mL/min. Moreover, the Cmax in series [2] (male, Wistar, rat, plasma, iv, 5 mg/kg, Cmax, rats, phenacetin 5 mg/kg iv, control (phenacetin alone)) was 3650 ± 390 ng/mL; in series [2] (setting [9]), 3310 ± 670 ng/mL. The values for the k el in series [2] (setting [7]) and in series [2] (setting [8]) were 0.000728 s⁻¹ and 0.000206 s⁻¹, respectively. Moreover, the MRT was 21 ± 1.2 min in series [2] (setting [7]) and 79.2 ± 12 min in series [2] (setting [8]). In addition, the half-life in series [2] (male, Wistar, rat, plasma, iv, 5 mg/kg, phenacetin 5 mg/kg iv, control (phenacetin alone)) was 16.2 ± 1.2 min; in series [2] (male, Wistar, rat, plasma, po, 30 mg/kg, phenacetin 30 mg/kg oral, control (phenacetin alone)) it was 58.8 ± 7.2 min. Besides, in series [2] (male, Wistar, rat, plasma, po, 30 mg/kg, Tmax, rats, phenacetin 30 mg/kg oral, control (phenacetin alone)), the Tmax is 19.8 ± 6 min. Further, the “Enhancement of bioavailability (F) of phenacetin compared with control” value in series [2] (rats, oral Triphala extract 100 mg/kg) is “approximately 1.2 fold”; in series [2] (rats, oral Triphala extract 500 mg/kg), around 1.6 fold. Moreover, the “Increase of bioavailability of phenacetin” value in series [2] (setting [6]) was “about 61.2%”. For the same compound, the Vdss was determined as 1.02 ± 0.1 L/h in series [2] (rats, phenacetin 5 mg/kg iv, control (phenacetin alone)); 1.26 ± 0.2 L/h in series [2] (rats, phenacetin 5 mg/kg iv, oral Triphala extract 100 mg/kg); 0.93 ± 0.1 L/h in series [2] (rats, phenacetin 5 mg/kg iv, oral Triphala extract 500 mg/kg). Besides, the CLtot/F in series [2] (setting [9]) worked out at 7.74 ± 2.63 L/h. Besides, the Vdss/F in series [2] (setting [9]) amounted to 9.06 ± 1.9 L/h.
